Measured values as given in patent publication US20240150293A1, “SPIROCYCLOHEXANE DERIVATIVES, PHARMACEUTICAL COMPOSITIONS CONTAINING THEM AND THEIR USES AS ANTI-APOPTOTIC INHIBITORS” (LES LABORATOIRES SERVIER, priority 2021, published 2024).
pIC50, pKi: −log10 of the molar value.

Assays:
NCI-H929 cell lines = assay: In vitro cytotoxicity, CellTiter-Glo (CTG) assay (Example B, Method B); format: cell-based; settings: Homo sapiens, NCI-H929, 48 h, NCI-H929 cells, 48 h incubation, read-out: C50
How it was run: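 NCI-H929 cells exposed to an 11-point compound series from 10 mM DMSO stocks (top final 30 μM) for 48 h at 37° C., 5% CO2. Viability measured as ATP by CellTiter-Glo luminescence; C50 is the concentration giving 50% cellular viability.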

[1] = target: Cy5-labelled Mcl1 (amino acids 171-321) C286S protein (UniProtKB Q07820) (Homo sapiens (Human), UniProt Q07820, C286S); assay: Inhibition of Mcl-1 by the fluorescence quenching assay (Example A, Method B); format: binding
Cy5-labelled Mcl1 (amino acids 171-321) C286S protein, sequence (Q07820 171-321 C286S): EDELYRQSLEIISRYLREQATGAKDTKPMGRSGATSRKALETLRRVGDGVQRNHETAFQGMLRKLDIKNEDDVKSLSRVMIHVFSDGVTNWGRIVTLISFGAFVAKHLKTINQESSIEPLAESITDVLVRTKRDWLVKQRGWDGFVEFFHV
How it was run: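 Cy5-labelled Mcl1 171-321 C286S (1 nM) quenched by TQ5WS-labelled PUMA peptide (10, 20 or 400 nM); displacement raises fluorescence (Ex 620/Em 680 nm). Buffer 10 mM HEPES, 150 mM NaCl, 0.05% Tween 20, pH 7.4, 5% DMSO; 2 h at room temperature, 11-point curves, IC50 converted to Ki (cKi/eKi).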

Compound: C[C@@H](COc1ccnc2c1[C@H](C)CCC2)C[C@H]1Cc2c(Cl)c3c(cc2[C@]12CC[C@@](Nc1cccc(Cl)c1)(C(=O)O)CC2)OCO3 [Example 888, (1r,4S,6′S)-8′-chloro-4-(3-chloroanilino)-6′-[(2R)-2-methyl-3-{[(5R)-5-methyl-5,6,7,8-tetrahydroquinolin-4-yl]oxy}propyl]-6′,7′-dihydro-2′H-spiro[cyclohexane-1,5′-indeno[5,6-d][1,3]dioxole]-4-carboxylic acid]
- pIC50 (NCI-H929 cell lines): 7.03
- pKi [1]: 9.60

Compound: C[C@@H](COc1ccnc2c1[C@H](C)CCC2)C[C@H]1Cc2cc(F)c(F)cc2[C@]12CC[C@@](Nc1cccc(Cl)c1)(C(=O)O)CC2 [Example 775, (1r,2′S,4S)-4-(3-chloroanilino)-5′,6′-difluoro-2′-[(2R)-2-methyl-3-{[(5R)-5-methyl-5,6,7,8-tetrahydroquinolin-4-yl]oxy}propyl]-2′,3′-dihydrospiro[cyclohexane-1,1′-indene]-4-carboxylic acid]
- pIC50 (NCI-H929 cell lines): 7.07
- pKi [1]: 9.29

Compound: C[C@@H](COc1ccnc2c1[C@H](C)CCC2)C[C@H]1Cc2cc3c(cc2[C@]12CC[C@@](Nc1cccc(Cl)c1)(C(=O)O)CC2)OCCCO3 [Example 837, (1r,4S,8′S)-4-(3-chloroanilino)-8′-[(2R)-2-methyl-3-{[(5R)-5-methyl-5,6,7,8-tetrahydroquinolin-4-yl]oxy}propyl]-3′,4′,8′,9′-tetrahydro-2′H-spiro[cyclohexane-1,7′-indeno[5,6-b][1,4]dioxepine]-4-carboxylic acid]
- pIC50 (NCI-H929 cell lines): 7.51
- pKi [1]: 11.13

Compound: C[C@@H](COc1ccnc2c1[C@H](C)CCC2)C[C@H]1Cc2ccc(OCC(F)(F)F)cc2[C@]12CC[C@@](Nc1cccc(Cl)c1)(C(=O)O)CC2 [Example 792, (1r,2′S,4S)-4-(3-chloroanilino)-2′-[(2R)-2-methyl-3-{[(5R)-5-methyl-5,6,7,8-tetrahydroquinolin-4-yl]oxy}propyl]-6′-(2,2,2-trifluoroethoxy)-2′,3′-dihydrospiro[cyclohexane-1,1′-indene]-4-carboxylic acid]
- pIC50 (NCI-H929 cell lines): 6.84
- pKi [1]: 9.33

Compound: C[C@@H](COc1ccnc2c1[C@H](C)CCC2)C[C@H]1Cc2cc3c(cc2[C@]12CC[C@@](Nc1cccc(Cl)c1)(C(=O)O)CC2)OCCCCO3 [Example 836, (1r,4S,9′S)-4-(3-chloroanilino)-9′-[(2R)-2-methyl-3-{[(5R)-5-methyl-5,6,7,8-tetrahydroquinolin-4-yl]oxy}propyl]-2′,3′,4′,5′,9′,10′-hexahydrospiro[cyclohexane-1,8′-indeno[5,6-b][1,4]dioxocine]-4-carboxylic acid]
- pIC50 (NCI-H929 cell lines): 6.97
- pKi [1]: 10.33

Compound: CC(OC(=O)OC1CCCC1)OC(=O)[C@]1(Nc2cccc(Cl)c2)CC[C@@]2(CC1)c1cc3c(cc1C[C@@H]2C[C@@H](C)COc1ccnc2c1[C@H](C)CCC2)OCO3 (stereo partly drawn) [Example 945, 1-{[(cyclopentyloxy)carbonyl]oxy}ethyl (1r,4S,6′S)-4-(3-chloroanilino)-6′-[(2R)-2-methyl-3-{[(5R)-5-methyl-5,6,7,8-tetrahydroquinolin-4-yl]oxy}propyl]-6′,7′-dihydro-2′H-spiro[cyclohexane-1,5′-indeno[5,6-d][1,3]dioxole]-4-carboxylate]
- pIC50 (NCI-H929 cell lines): 4.61
- pKi [1]: 6.79

Compound: CC(C)C1COc2cc3c(cc2OC1)[C@]1(CC[C@@](Nc2cccc(Cl)c2)(C(=O)O)CC1)[C@@H](C[C@@H](C)COc1ccnc2c1[C@H](C)CCC2)C3 (single isomer, unassigned) [Example 992]
- pIC50 (NCI-H929 cell lines): 6.74
- pKi [1]: 10.10

Compound: C[C@@H](COc1ccnc2c1[C@H](C)CCC2)C[C@H]1Cc2ccc(CO)cc2[C@]12CC[C@@](Nc1cccc(Cl)c1)(C(=O)O)CC2 [Example 870, (1r,2′S,4S)-4-(3-chloroanilino)-6′-(hydroxymethyl)-2′-[(2R)-2-methyl-3-{[(5R)-5-methyl-5,6,7,8-tetrahydroquinolin-4-yl]oxy}propyl]-2′,3′-dihydrospiro[cyclohexane-1,1′-indene]-4-carboxylic acid]
- pIC50 (NCI-H929 cell lines): 6.90
- pKi [1]: 10.29

Compound: C[C@@H](COc1ccnc2c1[C@H](C)CC[C@H]2F)C[C@H]1Cc2cc3c(cc2[C@]12CC[C@@](Nc1cccc(Cl)c1)(C(=O)O)CC2)OCO3 [Example 961, (1r,4S,6′S)-4-(3-chloroanilino)-6′-[(2R)-3-{[(5R,8R)-8-fluoro-5-methyl-5,6,7,8-tetrahydroquinolin-4-yl]oxy}-2-methylpropyl]-6′,7′-dihydro-2′H-spiro[cyclohexane-1,5′-indeno[5,6-d][1,3]dioxole]-4-carboxylic acid]
- pIC50 (NCI-H929 cell lines): 7.01
- pKi [1]: 10.51

Compound: CCCOc1ccc2c(c1)[C@]1(CC[C@@](Nc3cccc(Cl)c3)(C(=O)O)CC1)[C@@H](C[C@@H](C)COc1ccnc3c1[C@H](C)CCC3)C2 [Example 787, (1r,2′S,4S)-4-(3-chloroanilino)-2′-[(2R)-2-methyl-3-{[(5R)-5-methyl-5,6,7,8-tetrahydroquinolin-4-yl]oxy}propyl]-6′-propoxy-2′,3′-dihydrospiro[cyclohexane-1,1′-indene]-4-carboxylic acid]
- pIC50 (NCI-H929 cell lines): 6.99
- pKi [1]: 10.24

Compound: C[C@@H](COc1ccnc2c1[C@H](C)CCC2)C[C@H]1Cc2cc3c(cc2[C@]12CC[C@@](Nc1cccc(Cl)c1)(C(=O)O)CC2)O[C@@H](C)CO3 [Example 972, (1r,3'S,4S,7′S)-4-(3-chloroanilino)-3′-methyl-7′-[(2R)-2-methyl-3-{[(5R)-5-methyl-5,6,7,8-tetrahydroquinolin-4-yl]oxy}propyl]-2′,3′,7′,8′-tetrahydrospiro[cyclohexane-1,6′-indeno[5,6-b][1,4]dioxine]-4-carboxylic acid]
- pIC50 (NCI-H929 cell lines): 7.51
- pKi [1]: 11.05

Compound: C[C@@H](COc1ccnc2c1[C@H](C)CCC2)C[C@H]1Cc2cc3c(cc2[C@]12CC[C@@](Nc1cccc(Cl)c1)(C(=O)O)CC2)OCC1(CC1)CO3 [Example 994, (1r,4S,8′S)-4-(3-chloroanilino)-8′-[(2R)-2-methyl-3-{[(5R)-5-methyl-5,6,7,8-tetrahydroquinolin-4-yl]oxy}propyl]-8′,9′-dihydro-2′H,4′H-dispiro[cyclohexane-1,7′-indeno[5,6-b][1,4]dioxepine-3′,1″-cyclopropane]-4-carboxylic acid]
- pIC50 (NCI-H929 cell lines): 7.22
- pKi [1]: 10.35

Compound: CC(OC(=O)N1CCOCC1)OC(=O)[C@]1(Nc2cccc(Cl)c2)CC[C@@]2(CC1)c1cc3c(cc1C[C@@H]2C[C@@H](C)COc1ccnc2c1[C@H](C)CCC2)OCO3 (stereo partly drawn) [Example 948, 1-({(1r,4S,6′S)-4-(3-chloroanilino)-6′-[(2R)-2-methyl-3-{[(5R)-5-methyl-5,6,7,8-tetrahydroquinolin-4-yl]oxy}propyl]-6′,7′-dihydro-2′H-spiro[cyclohexane-1,5′-indeno[5,6-d][1,3]dioxole]-4-carbonyl}oxy)ethyl morpholine-4-carboxylate]
- pIC50 (NCI-H929 cell lines): 5.15
- pKi [1]: 7.19

Compound: C[C@@H](COc1ccnc2c1[C@H](C)CCC2)C[C@H]1Cc2cc3c(cc2[C@]12CC[C@@](Nc1cccc(Cl)c1)(C(=O)OCCN(C)C)CC2)OCO3 [Example 935, 2-(dimethylamino)ethyl (1r,4S,6′S)-4-(3-chloroanilino)-6′-[(2R)-2-methyl-3-{[(5R)-5-methyl-5,6,7,8-tetrahydroquinolin-4-yl]oxy}propyl]-6′,7′-dihydro-2′H-spiro[cyclohexane-1,5′-indeno[5,6-d][1,3]dioxole]-4-carboxylate]
- pIC50 (NCI-H929 cell lines): 5.72
- pKi [1]: 8.26

Compound: C[C@@H](COc1ccnc2c1[C@H](C)CCC2)C[C@H]1Cc2cc3c(cc2[C@]12CC[C@@](Nc1cccc(Cl)c1)(C(=O)O)CC2)CCC3 [Example 852, (1r,2′S,4S)-4-(3-chloroanilino)-2′-[(2R)-2-methyl-3-{[(5R)-5-methyl-5,6,7,8-tetrahydroquinolin-4-yl]oxy}propyl]-3′,5′,6′,7′-tetrahydro-2′H-spiro[cyclohexane-1,1′-[s]indacene]-4-carboxylic acid]
- pIC50 (NCI-H929 cell lines): 6.63
- pKi [1]: 10.05

Compound: C[C@@H](COc1ccnc2c1[C@H](C)CCC2)C[C@H]1Cc2cc3c(cc2[C@]12CC[C@@](Nc1cccc(Cl)c1)(C(=O)O)CC2)OCC1(CCC1)CO3 [Example 995, (1″r,4″S,8′S)-4″-(3-chloroanilino)-8′-[(2R)-2-methyl-3-{[(5R)-5-methyl-5,6,7,8-tetrahydroquinolin-4-yl]oxy}propyl]-8′,9′-dihydro-2′H,4′H-dispiro[cyclobutane-1,3′-indeno[5,6-b][1,4]dioxepine-7′,1″-cyclohexane]-4″-carboxylic acid]
- pIC50 (NCI-H929 cell lines): 6.97
- pKi [1]: 10.05

Compound: C[C@@H](COc1ccnc2c1[C@H](C)CC[C@H]2O)C[C@H]1Cc2cc3c(cc2[C@]12CC[C@@](Nc1cccc(Cl)c1)(C(=O)O)CC2)OCCO3 [Example 962, (1r,4S,7′S)-4-(3-chloroanilino)-7′-[(2R)-3-{[(5R,8R)-8-hydroxy-5-methyl-5,6,7,8-tetrahydroquinolin-4-yl]oxy}-2-methylpropyl]-2′,3′,7′,8′-tetrahydrospiro[cyclohexane-1,6′-indeno[5,6-b][1,4]dioxine]-4-carboxylic acid]
- pIC50 (NCI-H929 cell lines): 7.37
- pKi [1]: 10.96

Compound: C[C@@H](COc1ccnc2c1[C@H](C)CCC2)C[C@H]1Cc2cc3c(cc2[C@]12CC[C@@](Nc1cccc(Cl)c1)(C(=O)O)CC2)OCC[C@H](C)O3 [Example 985, (1r,2′S,4S,8′S)-4-(3-chloroanilino)-2′-methyl-8′-[(2R)-2-methyl-3-{[(5R)-5-methyl-5,6,7,8-tetrahydroquinolin-4-yl]oxy}propyl]-3′,4′,8′,9′-tetrahydro-2′H-spiro[cyclohexane-1,7′-indeno[5,6-b][1,4]dioxepine]-4-carboxylic acid]
- pIC50 (NCI-H929 cell lines): 6.92
- pKi [1]: 10.02
